pIC50: −log10 of the molar value.
How the values were obtained:
[1] = Binding affinity to soybean agglutinin was evaluated; design: species or system Glycine max
[2] = system: Erythrina corallodendron; test: Binding affinity to Erythrina corallodendron lectin was evaluated; format: functional
[3] = Binding affinity to Agglutinin was evaluated; design: species or system Arachis hypogaea

SMILES | pIC50 [1] | pIC50 [2] | pIC50 [3]
CC(=O)N[C@@H]1[C@H](Oc2cccc3ccccc23)O[C@@H](CO)[C@@H](O)[C@@H]1O | 2.89 | 2.82 | 2.71
CC(=O)N[C@@H]1[C@H](Oc2ccccc2)O[C@@H](CO)[C@@H](O)[C@@H]1O | 2.76 | 2.94 | 2.60
